5 compounds from patent US8729125B2, “Ophthalmic compositions and methods for treating eyes” (Allergan, Inc., priority 2004, dated 2014) can be followed below.

The nature of series [1]: Component compatibility with stabilized chlorine dioxide preservative. The series is classed as physicochemical. As for the experimental part: A composition including betaine and stabilized chlorine dioxide, as a preservative, was tested for component compatibility. […] Thus, betaine is not useful with certain preservatives, such as stabilized chlorine dioxide. However, betaine may advantageously be employed as a compatible solute in ophthalmic compositions which use other preservative systems, or which are free of preservatives, for example, in single or unit-dose applications.

Series [2] relates to phosphorylated c-jun N-terminal kinases (p-JNK1 and p-JNK2). Description: Western blot of phosphorylated JNK1 and JNK2 in primary corneal epithelial cultures under hyperosmolar stress. Format: cell-based, human. The conditions noted are these: 2 mM. Background: A western blot detects proteins with antibodies after separation by electrophoresis.
The test system of series [3] is JNK. Description: Beadlyte Cell Signaling Assay, phosphorylated:total JNK. The series is classed as cell-based, human. The conditions noted are these: 2 mM, Beadlyte method, FIG. 3. As for the experimental part:
(§1) A series of primary sub-confluent corneal epithelial cultures (grown for 12 to 14 days, about 4−5×10^5 cells/well) were washed three times with […] buffered saline (PBS) and switched to an Earle's Balanced Salt Solution (EBSS, 300 mOsmols/kg) for 24 hours before treatment. The corneal epithelial cells were cultured for 1 hour in an equal volume (2.0 mL/well) of EBSS media or 400 mOsmols/kg media by adding 53 mM NaCl or sucrose, with either L-carnitine inner salt, betaine hydrochloride, erythritol, or xylitol (all at a concentration of 2 mM) that were pre-added 60 minutes before adding NaCl or sucrose. Samples without these osmoprotectants were also prepared and tested.
(§2) The adherent cells were lysed in Beadlyte® Buffer B (included in the Beadlyte® Cell Signaling buffer kit, Upstate Biotechnology, Lake Placid, N.Y.) containing an EDTA-free protease inhibitor cocktail tablet (Roche Applied Science, Indianapolis, Ind.) for 15 minutes. The cell extracts were centrifuged at 12,000×g for 15 minutes at room temperature and the supernatants were stored at −80° C. until they were analyzed by Western blot analysis. The total protein concentrations of the cell extracts were determined using a Micro BCA protein assay kit (Pierce, Rockford, Ill.).
In another series of experiments, the Beadlyte® Cell Signaling Assay was used. This assay is a fluorescent bead-based sandwich immunoassay. Each sample (10 μg/25 μL) was pipetted into a well of a 96-well plate and incubated with 25 μL of diluted 5× beads coupled to phospho-JNK, phospho-ERK, phospho-p38 or total JNK, or total ERK, or total p38 specific capture antibodies overnight. […]
The beads were washed and mixed with biotinylated specific reporter antibodies for phospho-MAPK or total-MAPK, followed by streptavidin-phycoerythrin. The amount of total or phospho-MAPK was then quantified by the Luminex 100™ system (Luminex, Austin, Tex.). Fifty events per bead were read, and the data output obtained from the Bio-Plex Manager software were exported to Microsoft Excel® for further analysis. […]

Series [4] concerns corneal epithelial cells. Description: Trans-epithelial electrical resistance (TEER) of layered air-lift corneal epithelial cultures exposed to hypertonic fluid. The series is classed as cell-based, rabbit. The conditions noted are these: for Osmoprotective benefit on TEER relative to hypertonic control, in words: 2 mM, 400 mOsmols/kg, 22 hours; for Concentration dependent effect on % TEER relative to the isotonic control: different concentrations, TEER measured 0 to 24 hours, FIG. 6. The source says: In this experiment, corneal epithelial cells were isolated from the rabbit eye and grown under conditions so that they differentiate into a layered “air-lift” culture that includes basal, wing, and squamous cells. As they grow and differentiate, these cultures developed tight junctions between cells that provide the basis for a trans-epithelial electrical resistance (TEER) across the cell layers between the apical and basal surfaces. The TEER value is a sensitive measure of cell growth, differentiation and health.
After 5 days in culture during which the layered structure forms, different culture wells were exposed to hypertonic fluid (400 mOsmols/kg) with or without addition of one of 6 candidate compatible solutes at a low concentration (2 mM). The TEER was then measured after 22 hours of exposure. The TEER value was expressed as a percentage of the TEER value obtained from a similar culture under isotonic (300 mOsmol/kg) conditions.
Example 1 is repeated except that different concentrations of each of the candidate materials are used, and the TEER is measured at various times from 0 to 24 hours.
As in Example 1, the TEER variable is represented as % TEER relative to the isotonic control.
Example 4 was repeated except that compositions including combinations of compatible solutes were used. Compositions including only glycerol as a compatible solute were also tested.

Series [5] deals with ERK MAP Kinase. Description: Beadlyte Cell Signaling Assay, phospho:total ERK MAP kinase. Format: cell-based, human. The conditions noted are these: 2 mM, Beadlyte method, FIG. 5. As for the experimental part: as §1, §2
In another series of experiments, the Beadlyte® Cell Signaling Assay was used. This assay is a fluorescent bead-based sandwich immunoassay. […]

Structures can show the parent of a compound that is named as a salt. Where two headings read alike, the source gives them in different places.

For the compound `C[N+](C)(C)CC(=O)O` [Betaine, trimethyl glycine], the “Compatibility with stabilized chlorine dioxide (Purite) preservative in a composition” value is “incompatible” in series [1] and “not fully compatible” in series [1] (listed as betaine).
As for `C[N+](C)(C)C[C@H](O)CC(=O)[O-]` [Carnitine, L-carnitine inner salt], the “Levels of p-JNK1 and p-JNK2 (Western blot) in 300 mOsmols/kg cultures” value in series [2] (300 mOsmols/kg EBSS media) is “less robust effect”. For the same compound, in series [2] (pre-added 60 minutes, 1 hour in 400 mOsmols/kg media), the “JNK activation (levels of p-JNK1 and p-JNK2, Western blot intensity) compared to 400 mOsmols/kg media alone” value is recorded as “definite decrease”. Besides, in series [3], the “Amount of phospho-total JNK relative to the hypertonic control” value is on record as “reduced”. In addition, in series [4], the “Osmoprotective benefit on TEER relative to hypertonic control, in words” value is “produced the most benefit” and the “Concentration dependent effect on % TEER relative to the isotonic control” value is listed as “dose-related response”.
In the case of `OC[C@@H](O)[C@@H](O)CO` [Erythritol], the “Amount of ERK (phospho:total) relative to the hypertonic control” value in series [5] was “reduced”. Moreover, in series [3], the “Amount of phospho-total JNK relative to the hypertonic control” value is “reduced”. Also, in series [4], the “Osmoprotective benefit on TEER relative to hypertonic control, in words” value is on record as “best results among the polyols tested” and the “Concentration dependent effect on % TEER relative to the isotonic control” value was “dose-related response”.
Regarding `O[C@H]1[C@H](O)[C@@H](O)[C@H](O)[C@@H](O)[C@H]1O` [Myo-Inositol], the “Osmoprotective benefit on TEER relative to hypertonic control, in words” value in series [4] was “good results”.
As to `OC[C@@H](O)[C@H](O)[C@@H](O)CO` [Xylitol], the “Amount of ERK (phospho:total) relative to the hypertonic control” value in series [5] was “reduced”. The “Amount of phospho-total JNK relative to the hypertonic control” value in series [3] is reported as “reduced”. Besides, the “Osmoprotective benefit on TEER relative to hypertonic control, in words” value in series [4] is listed as “good results”.
